Results: patent US20210106550A1, “COMPOSITIONS FOR PREVENTING OR TREATING COGNITIVE IMPAIRMENT-RELATED DISEASE COMPRISING MUMEFURAL” (KOREA INSTITUTE OF ORIENTAL MEDICINE, priority 2018, published 2021)

Legend:
[1] = system: ChAT-positive cholinergic cells; assay: immunohistostaining of ChAT-positive cholinergic cells in basal forebrain; format: in vivo, Wistar rats; settings: BCCAo rats, oral mumefural; compared with the negative control; FIGS. 4A, 4B
Procedure: (§1) Specifically, 12-week-old Wister rats (350 g to 380 g) were used for the experiments. After obtaining the experimental animals, appearance was visually inspected and then normal symptoms were observed during a 7-day acclimation period. Healthy animals were selected therefrom and assigned to groups by a random method according to body weight ranges, and then experiments were performed. […]
In order to investigate effects of mumefural on normalization of the cholinergic system in the dementia-mimic animal model, mumefural was administered in the same manner as in Example 1, and then the number of cholinergic neurons of the basal forebrain was measured.
Specifically, the brain was excised from each of the dementia-mimic rats after administration of mumefural was completed and sectioned into slices with a thickness of 40 μm. Subsequently, the cholinergic neurons of the basal forebrain were detected using choline acetyltransferase (ChAT) protein, which is known to be expressed in cholinergic neurons. The slices were stained by immunohistostaining using an anti-ChAT antibody as a primary antibody and a donkey anti-goat antibody as a secondary antibody, and anti-ChAT positive cells were detected.

[2] = system: ChAT, VAChT, and AChE proteins; assay: western blot of ChAT, VAChT, and AChE proteins in basal forebrain; format: in vivo; settings: compared with the negative control; FIGS. 5A, 5B
Procedure: (§2) Specifically, 12-week-old Wister rats (350 g to 380 g) were used for the experiments. After obtaining the experimental animals, appearance was visually inspected and then normal symptoms were observed during a 7-day acclimation period. Healthy animals were selected therefrom and assigned to groups by a random method according to body weight ranges, and then experiments were performed. During the acclimation and experiment, a constant breeding environment was maintained under the conditions of a temperature of 23±3° C., a relative humidity of 50±10%, a ventilation frequency of 12 times to 16 times per hour, a 12-hour light-dark cycle (light on at 7:00, light off at 19:00), and an intensity of illumination of 150 Lx to 300 Lx. Experiments were performed using sterilized instruments, and the rats were allowed free access to tap water and a solid feed (PMI nutrition, USA) for 24 hours.
(§3) In order to construct a vascular dementia-mimic animal model, chronic cerebral hypoperfusion was induced by bilateral common carotid artery occlusion (2VO, hereinafter referred to as “brain damage (BCCA0)”) (Wakita et al., 1994). The rats were anesthetized with 4% isoflurane, and the anesthesia was maintained by 1.5% isoflurane during the operation. The central neck was incised to expose the bilateral common carotid artery carefully so as not to cause damage to the vagal nerve. Ligation was performed twice with No. 3 silk, thereby constructing an animal model in which dementia was induced by brain damage.
(§4) After 21 days from the BCCA0 operation, the Wistar rats were orally administered with mumefural for 42 days. The rats were divided into 5 groups listed in Table 1 below, and controls were orally administered with saline. Different concentrations of mumefural were set in the oral administration as low concentration (20 mg/kg), medium concentration (40 mg/kg), and high concentration (80 mg/kg).

[3] = system: myelin basic protein (MBP); assay: immunohistostaining of MBP protein (degraded myelin) in white matter and hippocampus; format: in vivo, Wistar rats; settings: compared with the negative control, FIGS. 9A, 9B
Procedure: as §1
In order to investigate the effects on normalization of degraded myelin in the dementia-mimic animal model, mumefural was administered in the same manner as in Example 1 above, and then degradation degrees of oligodendrocytes was analyzed in the hippocampus, fornix, medial septum, corpus callosum, and fimbria hippocampi.
Specifically, the brain was excised from each of the dementia-mimic rats after administration of mumefural was completed and sectioned into slices with a thickness of 40 μm. Subsequently, oligodendrocytes in the hippocampus, white matter fornix, medial septum, corpus callosum, and fimbria hippocampi were detected using myelin basic protein (MBP) that is expressed in the myelin sheath of axons by oligodendrocytes. The slices were stained by immunohistostaining using anti-MBP antibody as a primary antibody and horse anti-mouse antibody as a secondary antibody, and anti-MBP positive cell responses were detected.

MBP = assay: western blot of MBP in hippocampus; format: in vivo, Wistar rats; settings: compared with the negative control, FIG. 10
Procedure: as §2
(§5) In order to construct a vascular dementia-mimic animal model, chronic cerebral hypoperfusion was induced by bilateral common carotid artery occlusion (2VO, hereinafter referred to as “brain damage (BCCA0)”) (Wakita et al., 1994). The rats were anesthetized with 4% isoflurane, and the anesthesia was maintained by 1.5% isoflurane during the operation. The central neck was incised to expose the bilateral common carotid artery carefully so as not to cause damage to the vagal nerve. […]

[4] = system: PSD-95 and synaptophysin-1 proteins; assay: western blot of synaptic markers in hippocampus; format: in vivo, Wistar rats; settings: compared with the negative control; FIGS. 11A, 11B
Procedure: as §2, with “Experiments were performed using sterilized instruments, and the rats were allowed free access to tap water and a solid feed (PMI nutrition, USA) for 24 hours.” left out
In order to investigate effects of mumefural on normalization of synaptic markers in the dementia-mimic animal model, mumefural was administered in the same manner as in Example 1, and then expression levels of PSD-95 and synaptophysin-1 proteins in the hippocampus were analyzed.
Specifically, the hippocampus was excised from each of the dementia-mimic rats after administration of mumefural was completed, and the proteins were extracted therefrom. Expression levels of the PSD-95 and synaptophysin-1 proteins were analyzed by western blotting. β-Actin was used as a loading control.

[5] = system: NMDAR2A and NMDAR2B proteins; assay: western blot of post-synaptic receptors in hippocampus; format: in vivo, Wistar rats; settings: compared with the negative control; FIGS. 12A, 12B
Procedure: as §1
In order to investigate effects of mumefural on normalization of damaged hippocampus in the dementia-mimic animal model, mumefural was administered in the same manner as in Example 1, and then amounts of post-synaptic receptors in the hippocampus were analyzed by examining expression levels of N-methyl-D-aspartate receptor 2A (NMDAR2A) and N-methyl-D-aspartate receptor 2B (NMDAR2B) proteins.
Specifically, the hippocampus was excised from each of the dementia-mimic rats after administration of mumefural was completed, and the proteins were extracted therefrom. Expression levels of the NMDAR2A and NMDAR2B proteins were analyzed by western blotting. β-Actin was used as a loading control.

[6] = system: P2X7R, TLR4, MyD88, NLRP3, caspase1, IL-1β, IL-18, phospho-STAT3, and NF-κB (p65, p50) proteins; assay: western blot of neurological inflammation proteins in hippocampus; format: in vivo, Wistar rats
Procedure: as §2, §3, §4
In order to investigate effects of mumefural on reduction of neurological inflammation in the dementia-mimic animal model, mumefural was administered in the same manner as in Example 1, and then expression levels of P2X purinoceptor 7 (P2X7R), toll-like receptor 4 (TLR4), myeloid differentiation primary response 88 (MyD88), nucleotide-binding oligomerization domain-like receptor protein 3 (NLRP3), caspase1, interleukin (IL)-1β, IL-18, phospho-signal transducer and activator of transcription 3 (phospho-STAT3), and NF-κB (p65, p50) proteins were measured in the hippocampus. Meanwhile, these proteins provoke inflammation of nerve cells, causing damage to the brain and resulting in diseases such as dementia.
Specifically, the hippocampus was excised from each of the dementia-mimic rats after administration of mumefural was completed, and proteins were extracted therefrom. Expression levels of the proteins were analyzed by western blotting. β-Actin and LaminB1 were used as loading controls.

IL-1β and IL-18 = assay: enzyme immunoassay of inflammatory cytokines in hippocampus tissue; format: in vivo, Wistar rats; settings: compared with the negative control, FIG. 20
Procedure: as §2, §5

[7] = western blot, compared to the negative control, FIGS. 17A, 17B

For O=Cc1ccc(COC(=O)CC(O)(CC(=O)O)C(=O)O)o1 (stereo not shown) [mumefural], the “number of cells positive for the anti-ChAT antibody in the basal forebrain” value [1] was “significantly increased”, the “expression level of AChE protein in the basal forebrain” value [2] was “reduced” and the “expression level of ChAT protein in the basal forebrain” value [2] was “increased”. For the same compound, the “expression level of VAChT protein in the basal forebrain” value [2] was “increased”, the “myelin degradation (MBP immunohistostaining)” value [3] was “decreased” and the “density of the MBP in the hippocampus” value (MBP) was “increased”. The “expression level of PSD-95 protein in hippocampus” value [4] was “increased”, the “expression level of synaptophysin-1 protein in hippocampus” value [4] was “increased” and the “expression level of NMDAR2A protein in hippocampus” value [5] was “significantly increased”. For the same compound, the “expression level of NMDAR2B protein in hippocampus” value [5] was “significantly increased”, the “neurological inflammation protein expression, effect vs normal control” value ([6]; 20 mg/kg, 40 mg/kg, and 80 mg/kg oral) was “effects similar to or superior to those of the normal control” and the “expression level of IL-1β protein in hippocampus” value [6, 7] was “decreased”. The “expression level of IL-18 protein in hippocampus” value [6, 7] was “decreased”, the “expression level of MyD88 protein in hippocampus” value [6, 7] was “decreased” and the “expression level of NLRP3 protein in hippocampus” value [6, 7] was “decreased”. For the same compound, the “expression level of P2X7R protein in hippocampus” value [6, 7] was “decreased”, the “expression level of TLR4 protein in hippocampus” value [6, 7] was “decreased” and the “expression level of caspase1 protein in hippocampus” value [6, 7] was “decreased”. For the same compound, the “expression level of phospho-STAT3 protein in hippocampus” value ([6]; western blot, compared to the negative control, FIGS. 18A, 18B) was “decreased”, the “expression level of NF-κB (p65, p50) proteins in hippocampus” value ([6]; western blot, compared to the negative control, FIGS. 19A, 19B) was “decreased” and the “level of IL-1β in hippocampus tissue” value (IL-1β and IL-18) was “significantly decreased”. The “level of IL-18 in hippocampus tissue” value (IL-1β and IL-18) was “significantly decreased”.
